Key:
[1] = system: THP-1 macrophages; assay: Elastic modulus of siRNA-transfected, PMA-induced THP-1 cells measured by nanoindenter; format: cell-based, human; conditions: compared with control group si-NC; PMA 50 ng/ml for 24 hours
Procedure: (§1) 1) Transfection of THP-1 cells: the cells were inoculated into a 24-well plate at a density of 2.5×10^5/ well. A transfection reagent was prepared: A: 50 μL of low serum culture medium (Opti-MEM I Reduced Serum Medium, Cat. No. 31985070, Gibco) was added with 3 μL of transfection reagent (Lipofectamine™ RNAiMAX Transfection Reagent, Cat. No. 13778075, Invitrogen). B: 50 μL of low serum culture medium (Opti-MEM I Reduced Serum Medium, Cat. No. 31985070, Gibco) was added with 1 μL of siRNA (RIBO BIO). A and B were mixed and incubated at room temperature for 5 minutes, and 50 μL of the mixture was added with the THP-1 cells to culture overnight.
(§2) 2) A cell suspension was collected and centrifuged at 1000 rpm and room temperature for 5 minutes, a supernatant was removed, and PMA (50 ng/ml, Cat. No. p1585, Sigma) was added to induce for 24 hours.
3) The cell culture medium was replaced by PBS, an instrument was calibrated by using a confocal dish, and then an elastic modulus of the cells was measured.

[2] = system: THP-1 cells; assay: Flow cytometry of CD11b and CD68 after THP-1 cells are differentiated into macrophages; format: cell-based, human; conditions: flow cytometry after PMA-induced differentiation
Procedure: as §1, §2
4) The cells were collected, centrifuged, washed with PBS once, then added with 1 μL of Fixable Viability Stain 780 (Cat No. 565388, BD), mixed evenly, incubated on ice for 20 minutes, and washed with an FACS Buffer (2% BSA in PBS) twice. The solution was added with 2.5 μL of FC blocking antibody (Cat. No. 422302, Biolegend), blocked on ice for 20 minutes, then added with 2.5 μL of CD14-BV421 (Cat. No. 563743, BD) antibody and 1 μL of CD11b-PE (Cat. No. 101207, Biolegend) antibody, incubated on ice in the dark for 20 minutes, and then washed with an FACS Buffer twice. The solution was added with 100 μL of cell fixing solution (Cat. No. 00-8222-49, eBioscience), incubated at room temperature in the dark for 40 minutes, and then washed with a prepared membrane permeation solution (Cat. No. 00-8333-56, eBioscience) twice. The cells were resuspended to 100 μL of membrane permeation solution, added with 1.5 μL of CD68-AF647 (Cat. No. 333820, Biolegend), incubated on ice in the dark for 20 minutes, then washed with the membrane permeation solution twice, resuspended to 100 μL of FACS buffer, and detected on a computer.

| Substance | elastic modulus of the THP-1 macrophages [1] | fluorescence intensity of CD11b of the THP-1 cells [2] | fluorescence intensity of CD68 of the THP-1 cells [2] |
| --- | --- | --- | --- |
| si-Ptk2b_1: siRNA targeting human Ptk2b gene: GGATCATCATGGAATTGTA (SEQID NO. 1) (listed as DNA, chemistry not given here) | significantly reduce | significantly inhibit | significantly inhibit |
| si-Ptk2b_2: siRNA targeting human Ptk2b gene: GGACGAGGACTATTACAAA (SEQID NO. 2) (listed as DNA, chemistry not given here) | significantly reduce | significantly inhibit | significantly inhibit |
| si-Ptk2b_3: siRNA targeting human Ptk2b gene: CACATGAAGTCCGATGAGA (SEQID NO. 3) (listed as DNA, chemistry not given here) | significantly reduce | significantly inhibit | significantly inhibit |

Reference: US12365901B2, “Application of mechanical-force sensitive macrophage subset in pancreatic cancer diagnosis or prognosis evaluation” (priority 2023, dated 2025)
